# Results from US20240100045A1, “EMULSION COMPOSITION AND USES THEREOF IN THE PREVENTION AND/OR TREATMENT OF SKIN DAMAGE CAUSED BY RADIATION” (TARIAN PHARMA, priority 2021, published 2024).
# Where two headings read alike, the source gives them in different places. Marks after values point to notes of the source that are not given here.
# Key:
# [1] = tested on: alpha2-adrenergic receptors; conditions: alpha2 vs alpha1; cited from earlier work
# [2] = Method: (§1) […] were prepared by adding an excess of drug substance to various solvents and storing the samples in sealed containers for 24 hours at room temperature with continuous stirring.
# (§2) The majority of samples were stirred by a magnetic stirrer; however, in the case of viscous samples (e.g for pure glycerine), samples were stirred using a rotary mixer. The speed of the rotary mixer was adjusted to ensure proper mixing of the sample and this generally involved slower rotation speeds.
# (§3) The chromatographic conditions are described below:• Column: Sunfire C18 150 mm×4.6 mm, 3.5 μm • Column temperature: 40° C. • Injection volume: […] • Flow rate: 0.8m1/minute • UV Detection: 246 nm
# [3] = for saturation in the aqueous solvent phase of the primary formulation: prior to application
# Method: as §1, §2, §3
# Saturated solutions were prepared, incubated and measured as described in Example 1.
# [4] = conditions not specified, cited from earlier work
molecule,measurement,setting,value
Brc1c(NC2=NCCN2)ccc2nccnc12 [Brimonidine],selectivity for alpha2-adrenergic receptors over alpha1-adrenergic receptors,[1],"1,000 times"
brimonidine tartrate,solubility in glycerine relative to propylene glycol,[2]; glycerine vs propylene glycol,twice
same,Max Solubility % (w/w),"[2]; in ARLASOLVE DMI, 24 hours at room temperature",0.01 % (w/w)
same,Max Solubility % (w/w),"[2]; in GLUCAM E10, peak degradation observed after reinjection T + 72 hours",0.72* % (w/w)
same,Max Solubility % (w/w),"[2]; in GLUCAM E20, peak degradation observed after reinjection T + 72 hours",0.88* % (w/w)
same,Max Solubility % (w/w),"[2]; in Glycerine (GLY, 20 ml scintillation bottle)",1.61 % (w/w)
same,Max Solubility % (w/w),[2]; in Hexylene Glycol,0.01 % (w/w)
same,Max Solubility % (w/w),[2]; in Na Pyrrolidone Carboxylate (Ajidew L50),0.06 % (w/w)
same,Max Solubility % (w/w),[2]; in PEG-400,0.10 % (w/w)
same,Max Solubility % (w/w),"[2]; in Propylene Carbonate, peak degradation observed after reinjection T + 24 hours",0.01** % (w/w)
same,Max Solubility % (w/w),"[2]; in Propylene glycol, measured value",0.56 % (w/w)
same,Max Solubility % (w/w),"[2]; in TRANSCUTOL, 24 hours at room temperature",0.05 % (w/w)
same,Max Solubility % (w/w),"[2]; in WATER, measured value",6.40 % (w/w)
same,solubility capacity of PG relative to glycerine,[2]; propylene glycol vs glycerine,50%
same,active agent solubilised by the non-volatile mixture compared to the aqueous mixture,[3]; PG/PEG-400/GLY/PVP (20:10:5:1) vs PG/PEG400/GLY/PVP/water (20:10:5:1:40),approximately 22%
same,saturation in the aqueous solvent phase of the primary formulation,[3]; concentration of 1% brimonidine tartrate,around 30%
same,saturation in the aqueous solvent phase of the primary formulation,[3]; concentration of 1.5% brimonidine tartrate,~50%
same,Max Solubility % (w/w),[3]; in PG/PEG-400 (20:10),0.45 % (w/w)
same,Max Solubility % (w/w),[3]; in PG/PEG-400/GLY (20:10:5),0.66 % (w/w)
same,Max Solubility % (w/w),[3]; in PG/PEG-400/GLY/(20:10:5:1),0.72 % (w/w)
same,Max Solubility % (w/w),[3]; in PG/PEG-400/GLY/PVP/Water (20:10:5:1:40),3.3 % (w/w)
same,Max Solubility % (w/w),[3]; in PG/PEG-400/PVP (20:10:1),0.45 % (w/w)
same,Max Solubility % (w/w),"[4]; in Propylene glycol, literature value (Product Monograph ALPHAGAN)",~0.1**** % (w/w)
same,Max Solubility % (w/w),"[4]; in WATER, literature value",3.4*** % (w/w)
